According to US6262108A, “Medicinal use of cromoglycic acid compounds” (Kyoto Pharmaceutical Industries, Ltd., priority 1997, dated 2001):
Entries after “also recorded” stand apart in the source; their conditions may differ.

Experiments:
[1] = tested on: bone of feet and digits of the four limbs; assay: X-ray score of bone destruction in collagen-induced arthritis mice; format: in vivo, male DBA/1J mice; settings: 100 mg/kg/day orally
Description: (§1) According to the method of Courtenay et al. (Courtenay, J. S. et al.: Immunization against heterologous type II collagen induces arthritis in mice. Nature, 283:666, 1980), male DBA/1J mice (CHARLES RIVER JAPAN INC.) were sensitized with bovine type II collagen to induce collagen-induced arthritis (rheumatoid arthritis). After the onset of arthritis, diethyl acetoacetylcromoglycate was orally administered and its inhibitory effect was examined. The method is detailed in the following.
(§2) Male DBA/1J mice (8-week-old) were pre-bred for one week and divided into the following 3 groups based on body weight (8-10 per group). […]
In addition, the whole body w as X-ray photographed and destruction state of the bone of feet and digits of the four limbs was scored (X-ray score) by a blind test according to the criteria of Gliman et al. (Gliman S. C. et al.: Immunological abnormalities in rats with adjuvant-induced ar thritis, II. Effect of antiarthritic therapy on immune function in relation to disease development, Int. J. Immunopharmacol. , 9:9-16, 1987), wherein normal was rated 0 point, destruction in one joint was 1 point, destruction in two or more joints, though not all joints, was 2 points, and destruction in all joints was 3 points, each mouse scoring 0 to 12 points in total.

[2] = tested on: anti-bovine type II collagen antibody; assay: Anti-bovine type II collagen antibody titer in blood (ELISA) in collagen-induced arthritis mice; format: in vivo, male DBA/1J mice; settings: 100 mg/kg/day orally
Description: as §1, §2
At day 42 after the initiation of treatment, blood was taken from carotid artery and the mice were exsanguinated to death under ether anesthesia. The anti-bovine type II collagen antibody titer in blood was determined by the ELISA method according to the method of Stuart et al. (Stuart, J. M. et al.: Nature and specificity of the immune response to collagen in type II collagen-induced arthritis in mice, J. Clin. Invest., 69:673-683, 1982).

CCOC(=O)c1cc(=O)c2c(OCC(COc3cccc4oc(C(=O)OCC)cc(=O)c34)OC(=O)CC(C)=O)cccc2o1 [Example 1, Diethyl Acetoacetylcromoglycate]
effect on X-ray score / bone destruction (in words) ([1]; day 42 after starting treatment, U-test with control group): signifiicant improvement in X-ray so re; also recorded: inhibition of bone destruction of feet and digits of the four limbs
X-ray score ([1]; day 83 after initial injection of collagen (day 42 after starting treatment), mean ± standard error (n = 8-10), control 10.20 ± 0.40, p < 0.01): 5.80 ± 1.10
effect on anti-bovine type II collagen antibody titer in blood (in words) ([2]; day 42 after initiation of treatment, ANOVA with control group): significant decrease in anti-bovine type II collagen antibody titer in blood; also recorded: inhibition of an increase in the anti-bovine collagen antibody titer in blood
Anti-bovine type II collagen antibody titer in blood ([2]; day 83 after initial injection of collagen (day 42 after starting treatment), mean ± standard error (n = 8-10), control 0.301 ± 0.005, p < 0.01): 0.203 ± 0.010
